# Reference: BindingDB's records for doi:10.1016/j.bmcl.2006.01.055 (Bristol-Myers Squibb Pharmaceutical Research Institute, 2006)
# Test: Inhibition of beta-amyloid peptide production in CHO N9 cell line
row,IC50,SMILES
1,3000 nM,CCC[C@H](C(=O)NCc1ccco1)[C@@H](CC(C)C)C(=O)N[C@H]1CCCCN(Cc2cccc(Oc3ccccc3)c2)C1=O
2,3000 nM,CCC[C@H](C(=O)NC/C=C/Cc1ccccc1)[C@@H](CC(C)C)C(=O)N[C@H]1CCCCN(Cc2cccc(Oc3ccccc3)c2)C1=O
3,6000 nM,CCC[C@H](C(=O)NC1CCCC1)[C@@H](CC(C)C)C(=O)N[C@H]1CCCCN(Cc2cccc(Oc3ccccc3)c2)C1=O
4,200 nM,"CCC[C@H](C(=O)NO)[C@@H](CC(C)C)C(=O)N[C@H]1CCCCN(Cc2cccc(Oc3ccccc3)c2)C1=O [(2S,3R)-N1-hydroxy-3-isobutyl-N4-((S)-2-oxo-1-(3-phenoxybenzyl)azepan-3-yl)-2-propylsuccinamide]"
5,5000 nM,CCCCNC(=O)[C@@H](CCC)[C@@H](CC(C)C)C(=O)N[C@H]1CCCCN(Cc2cccc(Oc3ccccc3)c2)C1=O

# The next lines start with the compound.
row,SMILES,IC50
1,CCC[C@H](C(N)=O)[C@@H](CC(C)C)C(=O)N[C@H]1CCCCN(Cc2cccc(Nc3ccc(OC)cc3)c2)C1=O,160 nM
2,CCC[C@H](C(N)=O)[C@@H](CC(C)C)C(=O)N[C@H]1CCCCN(Cc2cccc(Nc3cccc(OC)c3)c2)C1=O,54 nM
3,CCC[C@H](C(N)=O)[C@@H](CC(C)C)C(=O)N[C@H]1CCCCN(Cc2cccc(Nc3ccccc3Cl)c2)C1=O,29 nM
4,CCC[C@H](C(N)=O)[C@@H](CC(C)C)C(=O)N[C@H]1CCCCN(Cc2cccc(Nc3ccc(C(F)(F)F)cc3)c2)C1=O,30 nM
5,CCC[C@H](C(N)=O)[C@@H](CC(C)C)C(=O)N[C@H]1CCCCN(Cc2cccc(Nc3ccc(F)c(Cl)c3)c2)C1=O,17 nM
6,"CCC[C@H](C(N)=O)[C@@H](CC(C)C)C(=O)N[C@H]1CCCCN(Cc2cccc(Nc3ccccc3)c2)C1=O [(2R,3S)-N1-((S)-1-(3-(phenylamino)benzyl)-2-oxoazepan-3-yl)-2-isobutyl-3-propylsuccinamide]",15 nM
7,CCC[C@H](C(N)=O)[C@@H](CC(C)C)C(=O)N[C@H]1CCCCN(Cc2cccc(Nc3cccc(C)c3)c2)C1=O,17 nM
8,CCC[C@H](C(N)=O)[C@@H](CC(C)C)C(=O)N[C@H]1CCCCN(Cc2cccc(Nc3ccc4c(c3)OCO4)c2)C1=O,152 nM
9,CCC[C@H](C(=O)NO)[C@@H](CC(C)C)C(=O)N[C@H]1CCCCN(Cc2ccccc2)C1=O,6800 nM
